From patent US11518805B2, “Binding inhibitor between TCTP dimer type IgE-dependent histamine releasing factor and receptor thereof, and use thereof” (EWHA UNIVERSITY—INDUSTRY COLLABORATION FOUNDATION, priority 2014, dated 2022)
Entries after “also recorded” stand apart in the source; their conditions may differ. Each block holds one molecule with its values, some of them ahead of it.

Key:
HRF [1] = assay: HRF binding affinity of heptamer peptides by ELISA (alanine scan of p2); conditions: p2 and its substituted heptamers m1-m7
Source text: In order to confirm the residues involved in the HRF binding affinity of the heptamer peptide of the present invention, the amino acid sequence of p2 was substituted with alanine (A), and only m5 was substituted with lysine (K). As a result, the following sequences were established: […]

Del-N11dTCTP = molecular target: T1, Del-N11dTCTP (Rattus norvegicus, UniProt P63029); assay: Inhibition of Del-N11dTCTP-induced IL-8 secretion by domain peptides in BEAS-2B cells; type: cell-based; conditions: Del-N11dTCTP 70 nM, peptide molar ratios 0~1, 24 hours, ELISA
T1 construct: made in house
T1 sequence (P63029 11-172 limits assumed): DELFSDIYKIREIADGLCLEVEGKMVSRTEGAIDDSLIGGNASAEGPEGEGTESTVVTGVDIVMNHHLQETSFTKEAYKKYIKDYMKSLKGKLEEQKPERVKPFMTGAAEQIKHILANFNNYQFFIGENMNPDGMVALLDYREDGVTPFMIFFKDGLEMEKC
Description: To investigate inhibitory effect of FL domain, Helix 2 domain, and Helix 3 domain on Del-N11dTCTP, the inventors synthesized FL domain (Ac-[…]-NH2) (SEQ. ID. NO: 1), Helix 2 domain (Ac-[…]-NH2) (SEQ. ID. NO: 11), and Helix 3 domain (Ac-[…]-NH2) (SEQ. ID. NO: 22) by using the synthetic peptides prepared with NH2-terminal acetylation and COOH-terminal amidation, followed by purification.
Particularly, BEAS-2B cells were treated with Del-N11dTCTP (70 nM) by the same manner as described in Experimental Example 1. At this time, the synthesized FL domain, Helix 2 domain, and Helix 3 domain were treated to the cells at different molar ratios (0˜1), followed by reaction for 30 minutes. Then, Del-N11dTCTP was added thereto. 24 hours later, the supernatant was obtained and the released IL-8 was quantified by ELISA.

HRF [2] = assay: Phage clone ELISA for binding to immobilized HRF; conditions: wells coated with HRF or BSA (control)
Description: Particularly, HRF was dissolved in a coating buffer (0.1 M NaHCO 3, pH 8.6) at the concentration of 20 μg/ml, which was loaded in a polystyrene microtiter plate (50 ? /well), followed by coating at 4° C. for overnight and blocking non-specific binding with BSA. The plate was washed with 0.1% Tween/TBS (TBST) 6 times. […] The plate stood at room temperature for 1 hour. TBST was added thereto, and the plate stood for 5 minutes, followed by washing. The washing was performed once after one round of panning, 5 times after 2 and 3 rounds of panning, and 10 times after 4 rounds of panning. 50 ? of glycine/HCl buffer (pH 2.2) was added thereto, which stood for 5 minutes. Then, phages were eluted, and then neutralization was induced with 8 ? of 1 M Tris-HCl (pH 9.1). The eluted phage solution was added to 20 ? of ER2537 culture medium (OD600=0.5˜1), followed by culture in a 37° C. shaking incubator (rpm=200) for 2 hours. 100 ? of SB medium was added thereto, followed by culture for overnight with shaking (250 rpm). The culture solution was centrifuged at 10,000 rpm (4° C.) for 15 minutes. 100 ? of the obtained supernatant was added with 30 ? of 5×PEG/NaCl (20% PEG(w/v), 15% NaCl (w/v)), followed by dissolving for 5 minutes. The mixture was then left in ice for 30 minutes. The mixture was centrifuged at 10,000 rpm (4° C.) for 20 minutes and the supernatant was discarded. The obtained pellet was suspended in 1 ? of 3% BSA/TBS. After performing centrifugation at 14,000 rpm for 5 minutes, the supernatant was obtained and used for panning. Affinity purification and phage replication were repeated 4 times, followed by eluting phages. Each phage clone was obtained from the proper plate of the eluted phage, followed by ELISA. Those phage clones showing a specific affinity to HRF were separated, followed by sequencing to confirm the peptide sequence. Those phage display peptides showing dominant binding to HRF were selected and listed below:
That is, each phage plaque was added to 1 ? of the ER2537 culture medium (OD600=0.5˜1) cultured in SB medium, followed by culture in a 37° C. incubator (rpm=250) for 5 hours. 100 ? of each culture solution was added to 900 ? of SB medium, followed by culture for overnight. […]
Each phage solution separated above was diluted in an equal volume of 6% BSA/PBS, and 50 ? of the diluted solution was added to each well of the plastic well plate coated with HRF or BSA (control), which stood for 2 hours. […] After adding peroxidase substrate solution thereto (100 ? /well), OD405 was measured with an ELISA reader.
HRF was diluted serially by ⅕ fold each from the concentration of 20 μg/ ? […] The phage 2 solution diluted serially by ⅕ fold each (½, 1/10, 1/50, 1/250, and 1/1250 of the stock solution) was added thereto, followed by ELISA and OD405 was measured.

BEAS-2B cells [3] = assay: IL-8 secretion by f-TCTP, Δ-dTCTP and Del-N11dTCTP in BEAS-2B cells; type: cell-based; conditions: protein at 1, 5 or 10 μg/ml, 24 hours, ELISA
Description: (§1) To investigate the IL-8 and GM-CSF secretory activity of f-TCTP, Δ-dTCTP, and Del-N11dTCTP in BEAS-2B cells, the present inventors compared the activity of f-TCTP, Δ-dTCTP, and Del-N11dTCTP by measuring the secretion of IL-8 in BEAS-2B cells.
(§2) Particularly, BEAS-2B cells were cultured in a 48-well plate until the confluency reached to 70%. Then, the cells were washed with 1% penicillin-streptomycin/BEBM (Clonetics) twice. Each recombinant protein of the Δ-dTCTP separated in Example 1 of the invention, and the f-TCTP and Del-N11dTCTP constructed by the method described in Korean Patent Application No. 2006-0007663 was added thereto at the concentration of 1 μg/ ? , 5 μg/ ? , or 10 μg/ ? 24 hours later, the supernatant was obtained and the released IL-8 and GM-CSF were quantified by ELISA.

BEAS-2B cells [4] = assay: GM-CSF secretion by f-TCTP, Δ-dTCTP and Del-N11dTCTP in BEAS-2B cells; type: cell-based; conditions: protein at 1, 5 or 10 μg/ml, 24 hours, ELISA
Description: as §1, §2

[5] = tested on: dTBP2 (dTCTP binding peptide 2); assay: Affinity of TCTP proteins to immobilized biotinylated dTBP2 (ELISA); conditions: biotinylated dTBP2 0.01-10 μm on streptavidin plate; protein 0.2 μg/ml; ELISA 450/570 nm
Description: To investigate the affinity to dTBP2 of f-TCTP, Δ-dTCTP, and Del-N11dTCTP of the present invention, biotin was conjugated to the COOH-terminus of dTBP2 known to bind to HRF, followed by purification. The purified protein was immobilized in the plastic well coated with streptavidin, to which f-TCTP, Δ-dTCTP, and Del-N11dTCTP were added. Then, the binding strength of each protein was investigated.
Particularly, 50 ? of the biotinylated dTBTP2 dissolved in a buffer (TBS [25 mM Tris, 150 mM NaCl, pH 7.2], 0.1% BSA, 0.05% Tween-20) at different concentrations of 0.01, 0.1, 1, and 10 μm was added to Reacti-Bind Streptavidin Coated Polystyrene Plates (PIERCE), followed by reaction at room temperature for 2 hours. The plate was washed with a washing buffer three times. Each of f-TCTP, Δ-dTCTP, and Del-N11dTCTP was dissolved in TBS at the concentration of 0.2 μg/ ? . 60 ? of the mixture was added to each well of the plate, followed by reaction for 1 hour. The plate was washed with a washing buffer three times. 100 ? of anti-HRF rabbit antibody (Bio-Rad) diluted in a buffer (1:2000) was added to each well of the plate, which stood at room temperature for 30 minutes. The plate was washed with a washing buffer three times and with TBS once, to which HRP-conjugated anti-rabbit antibody (1:2000) was added (100 ? /well), which stood at room temperature for 30 minutes. The plate was washed with a washing buffer three times and with TBS once, to which […] (PIERCE), the peroxydase substrate solution, was added (100 ? /well). Color development was measured at 450 nm and 570 nm using an ELISA reader (Bio-Rad), and affinity was determined by the difference.

HRF binding affinity (rank order) (HRF [1]): p2, m6>m7>m3>m2>fm5>M1>m4
Molecule: AYVYPSM [m1]

Molecule: Ac-KPERVKPFMTGAAEQIKHILANFN-NH2 [Helix 3 domain, ID; NO: 22]
inhibition of IL-8 secretion induced by Del-N11dTCTP (Del-N11dTCTP): inhibited more strongly by FL domain and Helix 2 domain than by Helix 3 domain

Molecule: LVTYPLP (IgE-dependent histamine-releasing factor binding peptide) [ph1, ID; NO: 23]
binding of phage clone to HRF (ELISA, OD405) (HRF [2]): specifically bind to HRF

HRF binding affinity (rank order) (HRF [1]): p2, m6>m7>m3>m2>fm5>M1>m4
Molecule: WAVYPSM [m2]

Molecule: WEFPGWM (IgE-dependent histamine-releasing factor binding peptide3) [ph4, ID; NO: 25]
binding of phage clone to HRF (ELISA, OD405) (HRF [2]): specifically bind to HRF

HRF binding affinity (rank order) (HRF [1]): p2, m6>m7>m3>m2>fm5>M1>m4
Molecule: WYAYPSM [m3]

HRF binding affinity (rank order) (HRF [1]): p2, m6>m7>m3>m2>fm5>M1>m4
Molecule: WYVAPSM [m4]

HRF binding affinity (rank order) (HRF [1]): p2, m6>m7>m3>m2>fm5>M1>m4
Molecule: WYVYKSM [m5]

HRF binding affinity (rank order) (HRF [1]): p2, m6>m7>m3>m2>fm5>M1>m4
Molecule: WYVYPAM [m6]

HRF binding affinity (rank order) (HRF [1]): p2, m6>m7>m3>m2>fm5>M1>m4
Molecule: WYVYPSA [m7]

Molecule: f-TCTP: full-length TCTP, monomer form (SEQ. ID. NO: 17)
secretion of IL-8 (BEAS-2B cells [3]): Del-N11dTCTP was superior to f-TCTP and Δ-dTCTP
secretion of GM-CSF (BEAS-2B cells [4]): Del-N11dTCTP was superior to f-TCTP and Δ-dTCTP
affinity to dTBP2 [5]: Del-N11dTCTP had higher dTBP2 affinity than f-TCTP and Δ-dTCTP

B1: Δ-dTCTP: dimer form of FL domain-deleted TCTP (protein)
chain: MIIYRDLISHDEMFSDIYKIREIADGLCLEVEGKMVSGGITGVDIVMNHHLQETSFTKEAYKKYIKDYMKSIKGKLEEQRPERVKPFMTGAAEQIKHILANFKNYQFFIGENMNPDGMVALLDYREDGVTPYMIFFKDGLEMEKCLEHHHHHH
secretion of IL-8 (BEAS-2B cells [3]): Del-N11dTCTP was superior to f-TCTP and Δ-dTCTP
secretion of IL-8 (BEAS-2B cells [3]; listed as A-dTCTP): could not induce IL-8 secretion
secretion of GM-CSF (BEAS-2B cells [4]): Del-N11dTCTP was superior to f-TCTP and Δ-dTCTP
affinity to dTBP2 [5]: low affinity; also recorded: Del-N11dTCTP had higher dTBP2 affinity than f-TCTP and Δ-dTCTP
